For assay [1], the target named is RET-V804M (Homo sapiens, UniProt P07949, V804M). Briefly: RET inhibition experiment (HTRF KinEASE-TK kit), mutant RET-V804M. The format is biochemical. To be noted: for IC50: read-out: The IC50 (nM) for inhibiting V804M; for inhibition at 0.01 µM: read-out: Inhibition rate on RET-V804M. As to the method: Experimental method: According to the instructions of the HTRF KinEASE-TK kit (Cisbio), the compounds of the present disclosure were tested for their inhibitory effects on the activity of wild-type RET enzyme, mutant RET enzyme (RET-V804M, RET-V804L, and RET-M918T) and fusion-type RET enzyme (RET-CCDCl6). After pre-incubation of different RET enzymes and different concentrations of the test compounds at room temperature for 30 min, a substrate and adenosine triphosphate (ATP) were added to initiate the reaction. After incubation at room temperature for 40 min, TK antibody-cryptate and streptavidin-XL665 were added, and the test was performed after incubation at room temperature for 45 min. With the solvent group (DMSO) as the negative control and the buffer group (without RET enzyme) as the blank control, the relative inhibitory activity percentages (i.e., inhibition rates) of different concentrations of the compounds were computed as per the following formula:
(§1) Relative inhibitory activity percentage=1−(compound group of different concentrations−blank control)/(negative control−blank control)*100%
(§2) The relative inhibitory activity percentages of different concentrations of the compounds were plotted with respect to the compound concentrations, and the curve was fitted according to a four-parameter model to compute the IC50 value as per the following formula:
(§3) y=min+(max−min)/(1+(x/IC50)^(−Hillslope))
(§4) where y is the relative inhibitory activity percentage, max is the maximum value of the fitted curve, min is the minimum value of the fitted curve, x is the logarithmic concentration of the compound, and Hillslope is the slope of the curve.

The target of assay [2] is VEGFR2 (Homo sapiens, UniProt P35968). The experiment in a line: VEGFR2 inhibition experiment (HTRF KinEASE-TK kit). Format: biochemical. To be noted: read-out: Inhibition rate on VEGFR2; for inhibition at 0.03 µM: 30 nM; for inhibition at 0.3 µM: 300 nM. Here is the method: Experimental method: According to the instructions of the HTRF KinEASE-TK kit (Cisbio), the compounds of the present disclosure were tested for their inhibitory effects on the VEGFR2 enzyme activity. After pre-incubation of the VEGFR2 enzyme and different concentrations of test compounds at room temperature for 30 min, a substrate and adenosine triphosphate (ATP) were added to initiate the reaction. After incubation at room temperature for 40 min, TK antibody-cryptate and streptavidin-XL665 were added, and the test was performed after incubation at room temperature for 45 min. With the solvent group (DMSO) as the negative control and the buffer group (without VEGFR2 enzyme) as the blank control, the relative inhibitory activity percentages (i.e., inhibition rates) of different concentrations of the compounds were computed as per the following formula:
as §1, §2, §3, §4

SMILES strings stand for the structures. Where two headings read alike, the source gives them in different places.

Sequence of VEGFR2 (P35968 20-1356, species assumed): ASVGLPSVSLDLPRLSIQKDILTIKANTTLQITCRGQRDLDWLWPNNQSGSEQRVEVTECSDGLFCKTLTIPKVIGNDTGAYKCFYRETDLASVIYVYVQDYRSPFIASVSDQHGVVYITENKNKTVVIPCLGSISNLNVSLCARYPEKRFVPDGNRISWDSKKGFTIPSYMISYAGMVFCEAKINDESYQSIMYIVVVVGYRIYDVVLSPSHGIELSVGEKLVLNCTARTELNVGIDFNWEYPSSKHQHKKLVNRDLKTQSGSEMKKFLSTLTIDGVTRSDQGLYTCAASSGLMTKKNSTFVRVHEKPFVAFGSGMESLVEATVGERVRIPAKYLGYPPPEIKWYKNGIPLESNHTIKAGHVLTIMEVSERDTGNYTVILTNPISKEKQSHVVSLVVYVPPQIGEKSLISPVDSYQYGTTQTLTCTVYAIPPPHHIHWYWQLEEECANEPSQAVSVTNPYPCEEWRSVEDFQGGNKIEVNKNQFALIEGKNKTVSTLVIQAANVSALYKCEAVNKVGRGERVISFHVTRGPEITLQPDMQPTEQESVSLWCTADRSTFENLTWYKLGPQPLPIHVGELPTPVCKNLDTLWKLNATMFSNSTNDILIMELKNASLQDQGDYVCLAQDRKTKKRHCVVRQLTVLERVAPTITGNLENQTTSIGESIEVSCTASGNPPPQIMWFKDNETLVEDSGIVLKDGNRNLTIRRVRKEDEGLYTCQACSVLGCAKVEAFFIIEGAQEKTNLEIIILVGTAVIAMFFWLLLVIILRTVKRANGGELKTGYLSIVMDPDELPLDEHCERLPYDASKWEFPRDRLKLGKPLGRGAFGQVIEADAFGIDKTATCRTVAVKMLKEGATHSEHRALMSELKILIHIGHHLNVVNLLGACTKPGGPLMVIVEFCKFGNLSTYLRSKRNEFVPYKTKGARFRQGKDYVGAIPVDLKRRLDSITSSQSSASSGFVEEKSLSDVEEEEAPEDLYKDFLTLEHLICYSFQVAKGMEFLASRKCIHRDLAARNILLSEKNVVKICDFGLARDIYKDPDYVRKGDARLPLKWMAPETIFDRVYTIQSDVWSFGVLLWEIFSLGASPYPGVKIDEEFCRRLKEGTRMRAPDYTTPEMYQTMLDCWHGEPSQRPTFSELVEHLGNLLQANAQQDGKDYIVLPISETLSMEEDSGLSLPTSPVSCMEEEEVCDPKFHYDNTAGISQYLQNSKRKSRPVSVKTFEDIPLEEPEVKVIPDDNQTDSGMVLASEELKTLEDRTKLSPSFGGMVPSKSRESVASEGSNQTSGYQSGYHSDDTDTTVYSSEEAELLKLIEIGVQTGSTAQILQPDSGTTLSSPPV
Sequence of RET-V804M (P07949 29-1114 V804M): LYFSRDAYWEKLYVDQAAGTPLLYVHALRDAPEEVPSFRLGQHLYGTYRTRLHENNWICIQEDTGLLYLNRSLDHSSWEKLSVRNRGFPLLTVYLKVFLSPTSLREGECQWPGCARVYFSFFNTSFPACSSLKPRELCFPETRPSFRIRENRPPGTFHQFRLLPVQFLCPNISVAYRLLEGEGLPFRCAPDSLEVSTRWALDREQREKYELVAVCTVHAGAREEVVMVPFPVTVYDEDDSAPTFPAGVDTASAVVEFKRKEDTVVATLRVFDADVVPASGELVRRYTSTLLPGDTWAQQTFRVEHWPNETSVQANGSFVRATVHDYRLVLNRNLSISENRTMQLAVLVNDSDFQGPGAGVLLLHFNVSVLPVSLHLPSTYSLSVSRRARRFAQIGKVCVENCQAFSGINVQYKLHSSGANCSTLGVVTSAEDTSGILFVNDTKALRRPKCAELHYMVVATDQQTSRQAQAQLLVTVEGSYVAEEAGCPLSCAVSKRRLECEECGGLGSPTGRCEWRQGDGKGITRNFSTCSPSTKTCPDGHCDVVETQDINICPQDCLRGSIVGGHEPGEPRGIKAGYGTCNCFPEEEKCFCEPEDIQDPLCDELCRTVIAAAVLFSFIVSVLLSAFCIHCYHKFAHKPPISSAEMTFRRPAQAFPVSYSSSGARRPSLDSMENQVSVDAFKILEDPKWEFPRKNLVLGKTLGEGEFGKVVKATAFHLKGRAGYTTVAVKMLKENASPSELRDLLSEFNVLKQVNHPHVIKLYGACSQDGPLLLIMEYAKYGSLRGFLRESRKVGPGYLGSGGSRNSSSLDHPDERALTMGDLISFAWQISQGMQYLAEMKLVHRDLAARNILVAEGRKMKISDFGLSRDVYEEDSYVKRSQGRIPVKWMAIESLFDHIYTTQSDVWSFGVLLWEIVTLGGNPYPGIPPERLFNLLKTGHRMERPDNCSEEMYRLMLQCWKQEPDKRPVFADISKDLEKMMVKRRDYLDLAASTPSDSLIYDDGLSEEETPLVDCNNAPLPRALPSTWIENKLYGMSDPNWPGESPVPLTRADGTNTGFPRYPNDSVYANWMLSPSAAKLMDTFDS

Take `Cc1cc(Nc2cc(C)[nH]n2)nc(-c2ccc(N3CC4CC(C3)N4Cc3ccc(-n4cc(F)c(C5CC5)n4)nc3)nc2)n1` [Compound 124, 2-(6-(6-((6-(3-cyclopropyl-4-fluoro-1H-pyrazol-1-yl)pyridin-3-yl)methyl)-3,6-diazabicyclo[3.1.1]heptan-3-yl)pyridin-3-yl)-6-methyl-N-(5-methyl-1H-pyrazol-3-yl)pyrimidin-4-amine]: the IC50 in assay [1] amounted to 10.7 ± 0.98 nM. The inhibition at 0.03 µM in assay [2] is 41%.
In the case of `Cc1cc(Nc2cc(C)[nH]n2)nc(-c2ccc(N3CC4CC(C3)N4Cc3ccc(-n4cc(Cl)c(C)n4)nc3)nc2)n1` [Compound 28, 2-(6-(6-((6-(4-chloro-3-methyl-1H-pyrazol-1-yl)pyridin-3-yl)methyl)-3,6-diazabicyclo[3.1.1]heptan-3-yl)pyridin-3-yl)-6-methyl-N-(5-methyl-1H-pyrazol-3-yl)pyrimidin-4-amine], in assay [1], the IC50 came to 10.4 ± 1.38 nM. The inhibition at 0.3 µM in assay [2] was 23%.
Take `COc1ccc(CN2CCN(c3ccc(-c4nc(C)cc(Nc5cc(C)[nH]n5)n4)cn3)CC2)cc1` [Compound 23, 2-(6-(4-(4-methoxybenzyl)piperazin-1-yl)pyridin-3-yl)-6-methyl-N-(5-methyl-1H-pyrazol-3-yl)pyrimidin-4-amine]: in assay [1], the inhibition at 0.01 µM turned out to be 47%. Further, the inhibition at 0.1 µM in assay [2] was -10%.
On to `Cc1cc(Nc2cc(C)[nH]n2)nc(-c2ccc(N3CC4CC(C3)N4Cc3ccc(-c4cnn(C(C)C)c4)nc3)nc2)n1` [Compound 135, 2-(6-(6-((6-(1-isopropyl-1H-pyrazol-4-yl)pyridin-3-yl)methyl)-3,6-diazabicyclo[3.1.1]heptan-3-yl)pyridin-3-yl)-6-methyl-N-(5-methyl-1H-pyrazol-3-yl)pyrimidin-4-amine], for which the inhibition at 0.01 µM in assay [1] (10 nM (Table 2)) came out at 65%. The inhibition at 0.1 µM in assay [2] (100 nM) stood at 34%.
Take `Cc1cnn(-c2ccc(CN3C4CC3CN(c3ccc(-c5nc(C)cc(Nc6cc(C)[nH]n6)n5)cn3)C4)cc2)c1` [Compound 88, 6-methyl-2-(6-(6-(4-(4-methyl-1H-pyrazol-1-yl)benzyl)-3,6-diazabicyclo[3.1.1]heptan-3-yl)pyridin-3-yl)-N-(5-methyl-1H-pyrazol-3-yl)pyrimidin-4-amine]: the inhibition at 0.01 µM in assay [1] (10 nM (Table 2)) came out at 62%. Besides, in assay [2] (100 nM), the inhibition at 0.1 µM worked out at 32%.
Consider `Cc1cc(Nc2cc(C)[nH]n2)nc(-c2ccc(N3CC4CC(C3)N4Cc3ccc(-n4nccc4OC4CCC4)nc3)nc2)n1` [Compound 27, 2-(6-(6-((6-(5-cyclobutoxy-1H-pyrazol-1-yl)pyridin-3-yl)methyl)-3,6-diazabicyclo[3.1.1]heptan-3-yl)pyridin-3-yl)-6-methyl-N-(5-methyl-1H-pyrazol-3-yl)pyrimidin-4-amine], for which the inhibition at 0.01 µM in assay [1] (10 nM (Table 2)) was found to be 87%. Besides, the inhibition at 0.03 µM in assay [2] came out at 23%.
On to `Cc1cc(Nc2cc(C)[nH]n2)nc(-c2ccc(N3CC4CC(C3)N4Cc3ccc(-n4cccn4)cc3)nc2)n1` [Compound 86, 2-(6-(6-(4-(1H-pyrazol-1-yl)benzyl)-3,6-diazabicyclo[3.1.1]heptan-3-yl)pyridin-3-yl)-6-methyl-N-(5-methyl-1H-pyrazol-3-yl)pyrimidin-4-amine], for which the inhibition at 0.01 µM in assay [1] (10 nM (Table 2)) is 64%. The inhibition at 0.1 µM in assay [2] (100 nM) came out at 52%.
As for `Cc1cc(Nc2cc(C)[nH]n2)nc(-c2ccc(N3CC4CC(C3)N4Cc3ccc(-c4ccc(C)o4)nc3)nc2)n1` [Compound 133, 6-methyl-N-(5-methyl-1H-pyrazol-3-yl)-2-(6-(6-((6-(5-methylfuran-2-yl)pyridin-3-yl)methyl)-3,6-diazabicyclo[3.1.1]heptan-3-yl)pyridin-3-yl)pyrimidin-4-amine], the inhibition at 0.01 µM in assay [1] (10 nM (Table 2)) was found to be 82%. Besides, the inhibition at 0.05 µM in assay [2] (50 nM) came to 28%.
As to `Cc1cc(Nc2cc(C3CC3)[nH]n2)nc(-c2ccc(N3CC4CC(C3)N4Cc3ccc(-n4cc(F)cn4)nc3)nc2)n1` [Compound 10, N-(5-cyclopropyl-1H-pyrazol-3-yl)-2-(6-(6-((6-(4-fluoro-1H-pyrazol-1-yl)pyridin-3-yl)methyl)-3,6-diazabicyclo[3.1.1]heptan-3-yl)pyridin-3-yl)-6-methylpyrimidin-4-amine], the IC50 in assay [1] was 3.97 ± 0.3 nM. For the same compound, the inhibition at 0.3 µM in assay [2] is 69%.
As to `Cc1cc(Nc2cc(C)[nH]n2)nc(-c2ccc(N3CC4CC(C3)N4Cc3ccc(-n4nccc4OC4CC4)nc3)nc2)n1` [Compound 30, 2-(6-(6-((6-(5-cyclopropoxy-1H-pyrazol-1-yl)pyridin-3-yl)methyl)-3,6-diazabicyclo[3.1.1]heptan-3-yl)pyridin-3-yl)-6-methyl-N-(5-methyl-1H-pyrazol-3-yl)pyrimidin-4-amine], the inhibition at 0.01 µM in assay [1] (10 nM (Table 2)) stood at 88%. Further, the inhibition at 0.03 µM in assay [2] is 51%.
Regarding `Cc1cc(Nc2cc(C)[nH]n2)nc(-c2ccc(N3CC4CC(C3)N4Cc3ccc(-n4nccc4C)nc3)nc2)n1` [Compound 9, 6-methyl-2-(6-(6-((6-(5-methyl-1H-pyrazol-1-yl)pyridin-3-yl)methyl)-3,6-diazabicyclo[3.1.1]heptan-3-yl)pyridin-3-yl)-N-(5-methyl-1H-pyrazol-3-yl)pyrimidin-4-amine], in assay [1], the IC50 amounted to 5.43 ± 0.91 nM. Further, in assay [2], the inhibition at 0.3 µM was found to be 69%.
With `Cc1cc(Nc2cc(C)[nH]n2)nc(-c2ccc(N3CC4CC(C3)N4Cc3ccc(-c4ccc[nH]4)nc3)nc2)n1` [Compound 123, 2-(6-(6-((6-(1H-pyrrol-2-yl)pyridin-3-yl)methyl)-3,6-diazabicyclo[3.1.1]heptan-3-yl)pyridin-3-yl)-6-methyl-N-(5-methyl-1H-pyrazol-3-yl)pyrimidin-4-amine], the IC50 in assay [1] was determined as 1.88 ± 0.11 nM. Besides, the inhibition at 0.03 µM in assay [2] worked out at 56%.
In the case of `Cc1cc(Nc2cc(C)[nH]n2)nc(-c2ccc(N3CC4CC(C3)N4Cc3ccc(-n4ccc(CO)n4)nc3)nc2)n1` [Compound 137, (1-(5-((3-(5-(4-methyl-6-((5-methyl-1H-pyrazol-3-yl)-amino)pyrimidin-2-yl)pyridin-2-yl)-3,6-diazabicyclo[3.1.1]heptan-6-yl)methyl)pyridin-2-yl)-1H-pyrazol-3-yl)methanol], in assay [1] (10 nM (Table 2)), the inhibition at 0.01 µM came out at 93%. Further, in assay [2], the inhibition at 0.03 µM stood at 26%.
Regarding `Cc1cc(Nc2cc(C)[nH]n2)nc(-c2ccc(N3CC4CC(C3)N4Cc3ccc(Cl)cc3)nc2)n1` [Compound 82, 2-(6-(6-(4-chlorobenzyl)-3,6-diazabicyclo[3.1.1]heptan-3-yl)pyridin-3-yl)-6-methyl-N-(5-methyl-1H-pyrazol-3-yl)pyrimidin-4-amine], in assay [1] (10 nM (Table 2)), the inhibition at 0.01 µM was 43%. The inhibition at 0.1 µM in assay [2] (100 nM) was 15%.
Consider `Cc1cc(Nc2cc(C)[nH]n2)nc(-c2ccc(N3CC4CC(C3)N4Cc3ccc(-c4cc(F)cnc4C)nc3)nc2)n1` [Compound 8, 2-(6-(6-((5′-fluoro-2′-methyl-[2,3′-dipyridyl]-5-yl)methyl)-3,6-diazabicyclo[3.1.1]heptan-3-yl)pyridin-3-yl)-6-methyl-N-(5-methyl-1H-pyrazol-3-yl)pyrimidin-4-amine], for which the inhibition at 0.01 µM in assay [1] (10 nM (Table 2)) was 46%. The inhibition at 0.3 µM in assay [2] came out at 5%.
On the same counts, the results for `CCc1ccnn1-c1ccc(CN2C3CC2CN(c2ccc(-c4nc(C)cc(Nc5cc(C)[nH]n5)n4)cn2)C3)cn1` [Compound 46, 2-(6-(6-((6-(5-ethyl-1H-pyrazol-1-yl)pyridin-3-yl)methyl)-3,6-diazabicyclo[3.1.1]heptan-3-yl)pyridin-3-yl)-6-methyl-N-(5-methyl-1H-pyrazol-3-yl)pyrimidin-4-amine] are 92% and 79%.
On to `Cc1cc(Nc2cc(C)[nH]n2)nc(-c2ccc(N3CC4CC(C3)N4Cc3ccc(-n4cc(F)cn4)cc3)nc2)n1` [Compound 91, 2-(6-(6-(4-(4-fluoro-1H-pyrazol-1-yl)benzyl)-3,6-diazabicyclo[3.1.1]heptan-3-yl)pyridin-3-yl)-6-methyl-N-(5-methyl-1H-pyrazol-3-yl)pyrimidin-4-amine], for which the inhibition at 0.01 µM in assay [1] (10 nM (Table 2)) stood at 70%. Besides, the inhibition at 0.1 µM in assay [2] (100 nM) is 26%.
Consider `Cc1cc(Nc2cc(C)[nH]n2)nc(-c2ccc(N3CC4CC(C3)N4Cc3ccc(-n4cc5c(n4)CCC5)nc3)nc2)n1` [Compound 25], for which the 50% inhibitory concentration (IC50) in assay [1] came to 6.29 ± 0.9 nM. In assay [2], the inhibition at 0.3 µM came out at 53%.
On to `Cc1cc(Nc2cc(C)[nH]n2)nc(-c2ccc(N3CC4CC(C3)N4Cc3ccc(-n4cnc(F)c4)nc3)nc2)n1` [Compound 64, 2-(6-(6-((6-(4-fluoro-1H-imidazol-1-yl)pyridin-3-yl)methyl)-3,6-diazabicyclo[3.1.1]heptan-3-yl)pyridin-3-yl)-6-methyl-N-(5-methyl-1H-pyrazol-3-yl)pyrimidin-4-amine], for which the inhibition at 0.01 µM in assay [1] (10 nM (Table 2)) was 79%. The inhibition at 0.1 µM in assay [2] (100 nM) came out at 38%.

The values above are taken from patent US20220144847A1, “HETEROCYCLIC COMPOUND, PHARMACEUTICAL COMPOSITION COMPRISING SAME, PREPARATION METHOD THEREFOR, AND USE THEREOF” (Sichuan Kelun-Biotech Biopharmaceutical Co., Ltd., priority 2019, published 2022).
